PMC12056667 (Chemical Science, 2025)

Key:
Tet(X4) [1] = target: T1, Tet(X4) (Escherichia coli, UniProt A0A3T0V9Y5); experiment: biochemical; conditions: 20 μM tigecycline, 50 nM Tet(X4), 100 μM NADPH, 5 mM MgCl2, 1 μM FAD, 100 mM TAPS pH 8.5; read-out: IC50, UPLC assay
Summary of the method: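 Endpoint turnover assay: 100 nM Tet(X4) with […] and 10 mM MgCl2 in 100 mM TAPS pH 8.5, preincubated with inhibitor 15 min at 30 °C, then 40 μM tigecycline plus 200 μM NADPH added […] for 20 min at 30 °C.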

Tet(X4) [2] = target: T1, Tet(X4); experiment: FP competitive displacement of probe 6; assay type: binding; conditions: for IC50: IC50app, 25 nM 6, 40 nM Tet(X4), 5 mM MgCl2, 1 μM FAD, 100 mM Tris pH 7.0, 0.01% Triton X-100
Summary of the method: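 FP displacement of probe 6 (added as 50 nM solution) from Tet(X4) (2× mix: 80 nM enzyme, 2 μM FAD, 10 mM MgCl2), 30 min at ambient temperature. Dose-response used 3-fold, 10-point DMSO series (top 5 or 0.5 mM stock). IC50^app came from a Hill fit of control-normalised response. Library screening used 10 μM compound, 0.1% DMSO, […].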

[3] = system: Proteus penneri NT6-2 – tet(X6); experiment: microbe, parasite or virus in culture; assay type: cell-based; conditions: for MIC: Proteus penneri, read-out: Tet(X) Inhibitor MIC; for Combination (Antibiotic/Inhibitor) MICs: inhibitor / Combination (Antibiotic/Inhibitor) MICs: antibiotic: lowest FICI
Protocol: (§1) MIC tests and checkerboard assays were performed in U-bottom, 96-well microtiter plates using a modified broth microdilution protocol following CLSI guidelines. Cation-adjusted Mueller-Hinton Broth (CAMHB) was prepared fresh on the day of testing.[74] […] Bacterial colonies were selected from an overnight culture on MHA plates (supplemented with 0.2%w/vL-arabinose for E. coli TOP10 containing pBAD-TOPO-Tet(X4)) and were suspended in 0.9% saline solution to achieve a 0.5 McFarland standard. A 100 μL aliquot of this suspension was then diluted into 9.9 mL of CAMHB to yield approximately 1.5 × 10^6 cfu mL^−1. 50 μL of the suspension was then added to each well of a microtiter plates. Plates were incubated at 37 °C for 18 h. At least 2 replicates were conducted for each combination. E. coli TOP10 + pBAD-TOPO-Tet(X4) cells were grown in the absence and presence of 0.2%w/vL-arabinose. Analysis of the MIC and checkerboard results were carried out by visual inspection of growth, with and without resazurin dye, an oxidation–reduction indicator.[75] As a measure of synergy, fractional inhibitory concentration index (FICI) was calculated as FICA + FICB, where FICA and FICB are the MICcombination/MICalone for each agent, respectively.[76] Results were interpreted as follows: synergistic (<0.5), indifferent (1.0–4.0) or antagonistic (>4.0).[64] In cases where the MIC exceeded or was below the measured range, the borderline value was taken to calculate the FIC index.

[4] = system: Acinetobacter baumannii NT5-1 – tet(X5); experiment: microbe, parasite or virus in culture; assay type: cell-based; conditions: for MIC: Acinetobacter baumannii, read-out: Tet(X) Inhibitor MIC; for Combination (Antibiotic/Inhibitor) MICs: inhibitor / Combination (Antibiotic/Inhibitor) MICs: antibiotic: lowest FICI
Protocol: as §1

[5] = system: Escherichia coli T-24a – tet(X4); experiment: microbe, parasite or virus in culture; assay type: cell-based; conditions: for MIC: Escherichia coli, read-out: Tet(X) Inhibitor MIC, alone; for Combination (Antibiotic/Inhibitor) MICs: inhibitor / Combination (Antibiotic/Inhibitor) MICs: antibiotic: lowest FICI
Protocol: as §1

[6] = inhibitor in combination with tigecycline
[7] = tigecycline in combination with the inhibitor

`Cc1c2c(c(O)c3c(O)cccc13)C(=O)[C@]1(O)C(=O)C(C(N)=O)=C(O)[C@@H](N(C)C)[C@@H]1C2` [Anhydrotetracycline] was tested, and the IC50 (Tet(X4) [1]) was 2.6 ± 0.3 µM, the IC50 (Tet(X4) [2]; FP assay) was 0.0268 ± 0.0053 µM and the “displacement of probe 6 / competitive binding (in words)” value (Tet(X4) [2]; up to a maximum concentration of 100 μM) was “clear dose-dependent displacement”. For the same compound, the MIC [3] was 4 µg/mL, the “Combination (Antibiotic/Inhibitor) MICs: inhibitor” value [3, 6] was 1 µg/mL and the “Combination (Antibiotic/Inhibitor) MICs: antibiotic” value [3, 7] was 4 µg/mL. The FICI ([3]; with tigecycline) was 0.8, the Outcome ([3]; with tigecycline) was “indifferent (indifferent (0.5-4.0))” and the MIC [4] was 16 µg/mL. The “Combination (Antibiotic/Inhibitor) MICs: inhibitor” value [4, 6] was 4 µg/mL, the “Combination (Antibiotic/Inhibitor) MICs: antibiotic” value [4, 7] was 2 µg/mL and the FICI ([4]; with tigecycline) was 0.5. For the same compound, the Outcome ([4]; with tigecycline) was “indifferent (indifferent (0.5-4.0))”, the MIC ([5]; E. coli T-24a) was 64 µg/mL and the “Combination (Antibiotic/Inhibitor) MICs: inhibitor” value [5, 6] was 32 µg/mL. The “Combination (Antibiotic/Inhibitor) MICs: antibiotic” value [5, 7] was 4 µg/mL, the FICI ([5]; with tigecycline) was 0.8 and the Outcome ([5]; with tigecycline) was “indifferent (indifferent (0.5-4.0))”.
In the case of `O=C(c1ccc(OCCN2CCCCC2)cc1)c1c(-c2ccc(O)cc2)sc2cc(O)ccc12` [Raloxifene], the IC50 (Tet(X4) [1]) is reported as 8.3 ± 2.1 µM, the IC50 (Tet(X4) [2]; Tet(X4) (Polarization)) is reported as 19.8 ± 5.4 µM and the MIC [3] is reported as over 128 µg/mL. For the same compound, the “Combination (Antibiotic/Inhibitor) MICs: inhibitor” value [3, 6] was over 128 µg/mL, the “Combination (Antibiotic/Inhibitor) MICs: antibiotic” value [3, 7] was 8 µg/mL and the FICI ([3]; with tigecycline) was 2. For the same compound, the Outcome ([3]; with tigecycline) was “indifferent (indifferent (0.5-4.0))”, the MIC [4] was over 128 µg/mL and the “Combination (Antibiotic/Inhibitor) MICs: inhibitor” value [4, 6] was 128 µg/mL. The “Combination (Antibiotic/Inhibitor) MICs: antibiotic” value [4, 7] was 2 µg/mL, the FICI ([4]; with tigecycline) was 1.3 and the Outcome ([4]; with tigecycline) was “indifferent (indifferent (0.5-4.0))”. For the same compound, the MIC ([5]; E. coli T-24a) was 256 µg/mL, the “Combination (Antibiotic/Inhibitor) MICs: inhibitor” value [5, 6] was 128 µg/mL and the “Combination (Antibiotic/Inhibitor) MICs: antibiotic” value [5, 7] was 8 µg/mL. The FICI ([5]; with tigecycline) was 1 and the Outcome ([5]; with tigecycline) was “indifferent (indifferent (0.5-4.0))”.
Work on `[H]/N=C(/NCCCCC)N/N=C/c1c[nH]c2ccc(OC)cc12` [Tegaserod] yielded an IC50 (Tet(X4) [1]) of 25.9 ± 2.4 µM, an IC50 (Tet(X4) [2]; Tet(X4) (Polarization)) of 43.2 ± 2.2 µM and an MIC [3] of 64 µg/mL. For the same compound, the “Combination (Antibiotic/Inhibitor) MICs: antibiotic” value ([3]; doxycycline with tegaserod) was 8 µg/mL, the “Combination (Antibiotic/Inhibitor) MICs: inhibitor” value [3, 6] was 16 µg/mL and the “Combination (Antibiotic/Inhibitor) MICs: inhibitor” value ([3]; tegaserod with doxycycline) was 32 µg/mL. For the same compound, the “Combination (Antibiotic/Inhibitor) MICs: inhibitor” value ([3]; tegaserod with tetracycline) was 32 µg/mL, the “Combination (Antibiotic/Inhibitor) MICs: antibiotic” value ([3]; tetracycline with tegaserod) was 16 µg/mL and the “Combination (Antibiotic/Inhibitor) MICs: antibiotic” value [3, 7] was 4 µg/mL. For the same compound, the FICI ([3]; with doxycycline) was 1.0, the Outcome ([3]; with doxycycline) was “indifferent (indifferent (0.5-4.0))” and the FICI ([3]; with tetracycline) was 1.0. For the same compound, the Outcome ([3]; with tetracycline) was “indifferent (indifferent (0.5-4.0))”, the FICI ([3]; with tigecycline) was 0.8 and the Outcome ([3]; with tigecycline) was “indifferent (indifferent (0.5-4.0))”. For the same compound, the MIC [4] was 32 µg/mL, the “Combination (Antibiotic/Inhibitor) MICs: antibiotic” value ([4]; doxycycline with tegaserod) was 16 µg/mL and the “Combination (Antibiotic/Inhibitor) MICs: inhibitor” value [4, 6] was 16 µg/mL. For the same compound, the “Combination (Antibiotic/Inhibitor) MICs: inhibitor” value ([4]; tegaserod with doxycycline) was 4 µg/mL, the “Combination (Antibiotic/Inhibitor) MICs: inhibitor” value ([4]; tegaserod with tetracycline) was 8 µg/mL and the “Combination (Antibiotic/Inhibitor) MICs: antibiotic” value ([4]; tetracycline with tegaserod) was 128 µg/mL. For the same compound, the “Combination (Antibiotic/Inhibitor) MICs: antibiotic” value [4, 7] was 1 µg/mL, the FICI ([4]; with doxycycline) was 0.6 and the Outcome ([4]; with doxycycline) was “indifferent (indifferent (0.5-4.0))”. The FICI ([4]; with tetracycline) was 1.3, the Outcome ([4]; with tetracycline) was “indifferent (indifferent (0.5-4.0))” and the FICI ([4]; with tigecycline) was 0.6. The Outcome ([4]; with tigecycline) was “indifferent (indifferent (0.5-4.0))”, the MIC ([5]; E. coli T-24a) was 16 µg/mL and the “Tet(X) inhibitor MIC” value ([5]; alone, E. coli T-24a) was 32 µg/mL. The “Combination (Antibiotic/Inhibitor) MICs: antibiotic” value ([5]; doxycycline with tegaserod) was 4 µg/mL, the “Combination (Antibiotic/Inhibitor) MICs: inhibitor” value [5, 6] was 8 µg/mL and the “Combination (Antibiotic/Inhibitor) MICs: inhibitor” value ([5]; tegaserod with doxycycline) was 16 µg/mL. The “Combination (Antibiotic/Inhibitor) MICs: inhibitor” value ([5]; tegaserod with tetracycline) was 16 µg/mL, the “Combination (Antibiotic/Inhibitor) MICs: antibiotic” value ([5]; tetracycline with tegaserod) was 32 µg/mL and the “Combination (Antibiotic/Inhibitor) MICs: antibiotic” value [5, 7] was 4 µg/mL. For the same compound, the FICI ([5]; with doxycycline) was 0.6, the Outcome ([5]; with doxycycline) was “indifferent (indifferent (0.5-4.0))” and the FICI ([5]; with tetracycline) was 0.8. For the same compound, the Outcome ([5]; with tetracycline) was “indifferent (indifferent (0.5-4.0))”, the FICI ([5]; with tigecycline) was 0.8 and the Outcome ([5]; with tigecycline) was “indifferent (indifferent (0.5-4.0))”.
For `CN1CCN(CCCN2c3ccccc3Sc3ccc(C(F)(F)F)cc32)CC1` [Trifluoperazine], the IC50 (Tet(X4) [1]) was 83.8 ± 21.4 µM, the IC50 (Tet(X4) [2]; Tet(X4) (Polarization)) was 55.6 ± 14.2 µM and the MIC [3] was over 128 µg/mL. For the same compound, the “Combination (Antibiotic/Inhibitor) MICs: inhibitor” value [3, 6] was 128 µg/mL, the “Combination (Antibiotic/Inhibitor) MICs: antibiotic” value [3, 7] was 4 µg/mL and the FICI ([3]; with tigecycline) was 1.5. For the same compound, the Outcome ([3]; with tigecycline) was “indifferent (indifferent (0.5-4.0))”, the MIC [4] was 128 µg/mL and the “Combination (Antibiotic/Inhibitor) MICs: inhibitor” value [4, 6] was 64 µg/mL. The “Combination (Antibiotic/Inhibitor) MICs: antibiotic” value [4, 7] was 1 µg/mL, the FICI ([4]; with tigecycline) was 0.6 and the Outcome ([4]; with tigecycline) was “indifferent (indifferent (0.5-4.0))”. For the same compound, the MIC ([5]; E. coli T-24a) was 256 µg/mL, the “Combination (Antibiotic/Inhibitor) MICs: inhibitor” value [5, 6] was 32 µg/mL and the “Combination (Antibiotic/Inhibitor) MICs: antibiotic” value [5, 7] was 8 µg/mL. The FICI ([5]; with tigecycline) was 0.6 and the Outcome ([5]; with tigecycline) was “indifferent (indifferent (0.5-4.0))”.
